In patent US9796711B2, “Substituted pyrazolo[3,4-b]pyridin-6-carboxylic acids and method of use” (AbbVie S.àr.l., priority 2015, dated 2017):

Assays:
[1] = target: T1, ΔF508-CFTR (Homo sapiens, UniProt P13569, DEL508-508); assay: CFTR cell surface levels using HRP-tagged ΔF508-CFTR expressing CFBE cells, in the presence of a co-corrector; type: cell-based; details: HRP-tagged ΔF508-CFTR expressing CFBE cells, in the presence of 3 μM co-corrector; for EC50: read-out: EC50
T1 construct: host or cells: CFBE41o-, doxycycline-inducible
T1 sequence (P13569 with tags, fused parts or gaps DEL508-508): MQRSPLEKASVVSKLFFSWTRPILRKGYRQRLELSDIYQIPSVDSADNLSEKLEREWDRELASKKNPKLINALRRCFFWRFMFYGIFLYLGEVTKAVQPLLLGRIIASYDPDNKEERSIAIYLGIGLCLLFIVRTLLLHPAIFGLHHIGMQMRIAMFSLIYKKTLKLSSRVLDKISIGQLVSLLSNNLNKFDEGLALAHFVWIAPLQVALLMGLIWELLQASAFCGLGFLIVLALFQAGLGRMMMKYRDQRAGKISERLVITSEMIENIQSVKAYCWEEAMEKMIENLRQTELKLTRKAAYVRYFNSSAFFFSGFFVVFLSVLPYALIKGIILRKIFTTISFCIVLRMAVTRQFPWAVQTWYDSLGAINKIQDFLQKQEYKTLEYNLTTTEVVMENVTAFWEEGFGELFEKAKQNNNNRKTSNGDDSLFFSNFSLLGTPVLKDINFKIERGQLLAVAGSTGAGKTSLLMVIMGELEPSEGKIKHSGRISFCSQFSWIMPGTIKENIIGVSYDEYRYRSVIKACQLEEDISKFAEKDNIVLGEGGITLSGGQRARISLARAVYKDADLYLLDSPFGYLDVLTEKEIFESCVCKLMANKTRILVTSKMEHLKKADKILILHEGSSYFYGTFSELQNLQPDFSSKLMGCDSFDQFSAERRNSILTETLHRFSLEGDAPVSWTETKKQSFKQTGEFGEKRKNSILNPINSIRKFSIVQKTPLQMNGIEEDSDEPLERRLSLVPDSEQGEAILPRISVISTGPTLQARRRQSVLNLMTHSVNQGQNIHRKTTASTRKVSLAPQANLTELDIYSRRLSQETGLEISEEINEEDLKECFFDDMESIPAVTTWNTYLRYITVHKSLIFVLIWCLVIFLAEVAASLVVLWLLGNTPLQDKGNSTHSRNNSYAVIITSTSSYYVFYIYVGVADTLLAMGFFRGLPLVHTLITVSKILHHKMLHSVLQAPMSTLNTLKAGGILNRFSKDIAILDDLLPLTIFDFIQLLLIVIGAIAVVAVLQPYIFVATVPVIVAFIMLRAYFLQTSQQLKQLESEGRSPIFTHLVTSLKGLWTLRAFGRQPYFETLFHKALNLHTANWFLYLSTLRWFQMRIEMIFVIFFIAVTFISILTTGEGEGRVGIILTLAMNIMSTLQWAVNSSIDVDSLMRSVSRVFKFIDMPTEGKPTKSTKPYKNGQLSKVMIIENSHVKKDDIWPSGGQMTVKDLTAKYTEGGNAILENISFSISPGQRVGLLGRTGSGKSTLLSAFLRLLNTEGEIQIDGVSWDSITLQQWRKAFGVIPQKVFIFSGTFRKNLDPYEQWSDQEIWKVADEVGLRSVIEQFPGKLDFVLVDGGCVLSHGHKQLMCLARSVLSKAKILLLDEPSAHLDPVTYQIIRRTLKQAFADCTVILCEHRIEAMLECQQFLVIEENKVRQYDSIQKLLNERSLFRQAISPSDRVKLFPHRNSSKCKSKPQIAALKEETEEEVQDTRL
Method in brief: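 Cells were seeded with 0.5 μg/mL doxycycline and held 68 h at 37 °C. Test compounds plus 3 μM co-corrector (final 0.1% DMSO) were then added for 20 h at 33 °C. Washed cells received HRP substrate, and luminescence was normalized between DMSO and 3 μM co-corrector controls.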

[2] = target: T1, ΔF508-CFTR; assay: CFTR cell surface levels using HRP-tagged ΔF508-CFTR expressing CFBE cells, intrinsic corrector capacity; type: cell-based; details: for EC50: read-out: EC50
Method in brief: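 Here the cells express ΔF508-CFTR with horseradish peroxidase inserted in extracellular loop 4, so only rescued channel at the surface gives luminescent signal. Compounds act on their own, 20 h at the reduced temperature of 33 °C; values are percent activity relative to DMSO and a 3 μM corrector.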

[3] = HRP-tagged ΔF508-CFTR expressing CFBE cells, intrinsic corrector capacity (no co-corrector), 33° C., 20 hours
[4] = HRP-tagged ΔF508-CFTR CFBE41o- cells, compounds alone (intrinsic corrector capacity), 20 hours at 33° C., positive control 3 μM corrector
[5] = HRP-tagged ΔF508-CFTR CFBE41o- cells, compounds alone (intrinsic corrector capacity), 20 hours at 33° C.

| Structure (SMILES) | % Activation [1] [%] | EC50 [1] [nM] | % Activation [2, 3] [%] | EC50 [2, 3] [nM] | % Activation [2, 4] [%] | EC50 [2, 5] [nM] |
| --- | --- | --- | --- | --- | --- | --- |
| O=C(O)c1cc(OC[C@H](F)C2CCOCC2)c2c(C3CCC3)nn(-c3ccccc3)c2n1 [compound 434, 3-cyclobutyl-4-[(2R)-2-fluoro-2-(oxan-4-yl)ethoxy]-1-phenyl-1H-pyrazolo[3,4-b]pyridine-6-carboxylic acid] | 342.8 | 328 | 154.17 | 581 |  |  |
| Cc1cccc(-n2nc(C(C)C)c3c(N4CC5CN(CC#N)CC5C4)cc(C(=O)O)nc32)c1 (stereo not drawn) [compound 226, 4-[5-(cyanomethyl)hexahydropyrrolo[3,4-c]pyrrol-2(1H)-yl]-1-(3-methylphenyl)-3-(propan-2-yl)-1H-pyrazolo[3,4-b]pyridine-6-carboxylic acid] | 352.2 | 1350 |  |  | 189.05 | 3340 |
| CN1[C@@H]2CC[C@H]1C[C@@H](Oc1cc(C(=O)O)nc3c1c(C1CCC1)nn3-c1ccccc1)C2 [compound 621, 3-cyclobutyl-4-{[(3-endo)-8-methyl-8-azabicyclo[3.2.1]octan-3-yl]oxy}-1-phenyl-1H-pyrazolo[3,4-b]pyridine-6-carboxylic acid] | 294.75 | 3140 | 89.46 | 3330 |  |  |
| CC(C)Oc1nn(C2CCCCC2)c2nc(C(=O)O)cc(-c3ccc(C(=O)N4CCC(N(C)C)CC4)cc3)c12 [compound 861, 1-cyclohexyl-4-{4-[4-(dimethylamino)piperidine-1-carbonyl]phenyl}-3-[(propan-2-yl)oxy]-1H-pyrazolo[3,4-b]pyridine-6-carboxylic acid] | 155.4 |  | 31.08 |  |  |  |
| Cc1nn(-c2ccccc2)c2nc(C(=O)O)cc(C3=CCOCC3)c12 [compound 128, 4-(3,6-dihydro-2H-pyran-4-yl)-3-methyl-1-phenyl-1H-pyrazolo[3,4-b]pyridine-6-carboxylic acid] | 175.85 | 3340 |  |  | 33.92 | 3340 |
| CC(C)c1nn([C@@H]2CCC[C@H](O)C2)c2nc(C(=O)O)cc(-c3ccc(N4CCOCC4)cc3)c12 (racemic) [compound 195, rac-1-[(1R,3S)-3-hydroxycyclohexyl]-4-[4-(morpholin-4-yl)phenyl]-3-(propan-2-yl)-1H-pyrazolo[3,4-b]pyridine-6-carboxylic acid] | 174.9 | 3340 |  |  | 27.46 | > 10000 |
| CC(C)c1nn(-c2ccc(F)cc2)c2nc(C(=O)O)cc(N3CCN(C4CCN(C)CC4)CC3)c12 [compound 801, 1-(4-fluorophenyl)-4-[4-(1-methylpiperidin-4-yl)piperazin-1-yl]-3-(propan-2-yl)-1H-pyrazolo[3,4-b]pyridine-6-carboxylic acid] | 253.1 | 1670 | 67.99 | 1670 |  |  |
| COCCOC1CCN(c2cc(C(=O)O)nc3c2c(C2CCC2)nn3-c2ccccc2)CC1 [compound 685, 3-cyclobutyl-4-[4-(2-methoxyethoxy)piperidin-1-yl]-1-phenyl-1H-pyrazolo[3,4-b]pyridine-6-carboxylic acid] | 510.3 | 245 | 260.5 | 164 |  |  |
| Cc1nn(-c2ccccc2)c2nc(C(=O)O)cc(OCC3(F)CCN(C)C3)c12 (stereo not drawn) [compound 378, 4-[(3-fluoro-1-methylpyrrolidin-3-yl)methoxy]-3-methyl-1-phenyl-1H-pyrazolo[3,4-b]pyridine-6-carboxylic acid] | 140.5 | 3340 |  |  | 14.56 | 5010 |
| O=C(O)c1cc(N2CC[C@H](F)C2)c2c(C3CCC3)nn(-c3ccccc3)c2n1 [compound 527, 3-cyclobutyl-4-[(3S)-3-fluoropyrrolidin-1-yl]-1-phenyl-1H-pyrazolo[3,4-b]pyridine-6-carboxylic acid] | 291.2 | 1030 | 100.1 | 1160 |  |  |
| COCCOCC1(F)CCN(c2cc(C(=O)O)nc3c2c(C2CCC2)nn3-c2ccccc2)CC1 [compound 459, 3-cyclobutyl-4-{4-fluoro-4-[(2-methoxyethoxy)methyl]piperidin-1-yl}-1-phenyl-1H-pyrazolo[3,4-b]pyridine-6-carboxylic acid] | 319.8 | 380 | 152.05 | 653 |  |  |
| CC(C)c1nn(C2CCN(CC(F)(F)F)CC2)c2nc(C(=O)O)cc(-c3ccc(N4CCOCC4)cc3)c12 [compound 117, 4-[4-(morpholin-4-yl)phenyl]-3-(propan-2-yl)-1-[1-(2,2,2-trifluoroethyl)piperidin-4-yl]-1H-pyrazolo[3,4-b]pyridine-6-carboxylic acid] | 229.45 | 765 |  |  | 70.77 | 1100 |
| Cc1nn(-c2ccccc2)c2nc(C(=O)O)cc(N3CC4(CCOC4)C3)c12 [compound 306, 3-methyl-4-(6-oxa-2-azaspiro[3.4]octan-2-yl)-1-phenyl-1H-pyrazolo[3,4-b]pyridine-6-carboxylic acid] | 147.8 | 2510 |  |  | 22.69 | 7500 |
| CC(C)N1CCN(c2ccc(-c3cc(C(=O)O)nc4c3c(C3CCC3)nn4C3CCCCC3)cc2)CC1 [compound 867, 3-cyclobutyl-1-cyclohexyl-4-{4-[4-(propan-2-yl)piperazin-1-yl]phenyl}-1H-pyrazolo[3,4-b]pyridine-6-carboxylic acid] | 290.65 | 317 | 125.2 | 1410 |  |  |
| CC(C)c1nn(-c2cccc(F)c2)c2nc(C(=O)O)cc(-c3ccc(N4CCC(C#N)CC4)cc3)c12 [compound 286, 4-[4-(4-cyanopiperidin-1-yl)phenyl]-1-(3-fluorophenyl)-3-(propan-2-yl)-1H-pyrazolo[3,4-b]pyridine-6-carboxylic acid] | 448.23 | 256 |  |  | 259.83 | 544 |
| O=C(O)c1cc(OCC2CCOCC2)c2c(C3CCC3)nn(-c3ccccc3)c2n1 [compound 417, 3-cyclobutyl-4-[(oxan-4-yl)methoxy]-1-phenyl-1H-pyrazolo[3,4-b]pyridine-6-carboxylic acid] | 322 | 318 | 134.8 | 546 |  |  |
| N#CC1CCN(c2ccc(-c3cc(C(=O)O)nc4c3c(C3CCC3)nn4-c3cccc(N4CCCC4)c3)cc2)CC1 [compound 247, 4-[4-(4-cyanopiperidin-1-yl)phenyl]-3-cyclobutyl-1-[3-(pyrrolidin-1-yl)phenyl]-1H-pyrazolo[3,4-b]pyridine-6-carboxylic acid] | 569.07 | 332 |  |  | 390.27 | 420 |
| CC(C)CN1C[C@@H]2CN(c3cc(C(=O)O)nc4c3c(C(C)C)nn4-c3ccc(F)cc3)C[C@@H]2C1 [compound 796, 1-(4-fluorophenyl)-4-[(3aR,6aS)-5-(2-methylpropyl)hexahydropyrrolo[3,4-c]pyrrol-2(1H)-yl]-3-(propan-2-yl)-1H-pyrazolo[3,4-b]pyridine-6-carboxylic acid] | 358 | 1670 | 169.7 | 1670 |  |  |
| O=C(O)c1cc(N2CCC(N3CCC(F)(F)CC3)CC2)c2c(C3CCC3)nn(-c3ccc(F)cc3)c2n1 [compound 850, 3-cyclobutyl-4-(4,4-difluoro[1,4′-bipiperidin]-1′-yl)-1-(4-fluorophenyl)-1H-pyrazolo[3,4-b]pyridine-6-carboxylic acid] | 615.6 | 88.9 | 234.4 | 74.1 |  |  |
| Cc1nn(-c2ccccc2)c2nc(C(=O)O)cc(N3CCN(C(=O)N4CCOCC4)CC3)c12 [compound 322, 3-methyl-4-[4-(morpholine-4-carbonyl)piperazin-1-yl]-1-phenyl-1H-pyrazolo[3,4-b]pyridine-6-carboxylic acid] | 154.55 | 3340 |  |  | 12.25 | > 10000 |
| Cc1nn(-c2ccccc2)c2nc(C(=O)O)cc(N3CCN(CC#N)CC3)c12 [compound 136, 4[4-(cyanomethyl)piperazin-1-yl]-3-methyl-1-phenyl-1H-pyrazolo[3,4-b]pyridine-6-carboxylic acid] | 189.95 | 3340 |  |  | 40.405 | 3340 |
| COCC(COC)Oc1cc(C(=O)O)nc2c1c(C(C)C)nn2-c1ccc(F)cc1 [compound 654, 4-[(1,3-dimethoxypropan-2-yl)oxy]-1-(4-fluorophenyl)-3-(propan-2-yl)-1H-pyrazolo[3,4-b]pyridine-6-carboxylic acid] | 245.5 | 3330 | 66.19 | 3330 |  |  |
| COCCC1(COc2cc(C(=O)O)nc3c2c(C)nn3-c2ccccc2)CC1 [compound 388, 4-{[1-(2-methoxyethyl)cyclopropyl]methoxy}-3-methyl-1-phenyl-1H-pyrazolo[3,4-b]pyridine-6-carboxylic acid] | 171.6 | 1460 |  |  | 50.555 | 1670 |
